Experimental data reported in patent US5399543A, “3-[4-(phenylmethoxy)phenyl]-1-substituted-6-haloalkyl-uracil herbicides” (FMC Corporation, priority 1993, dated 1995).

How the values were obtained:
Soybean [1] = experiment: Preemergence herbicidal activity, soybean; assay type: in vivo, Glycine max var. Williams; details: Glycine max, pre-emergence, 0.3 kg/ha, after 17-21 days, read-out: Preemergence herbicidal activity (% control), Soybean
Method: (§1) The 3-[4-(phenylmethoxy)phenyl]-1-substituted-6-haloalkyluracil herbicides of this invention were tested for pre- and postemergence herbicidal activity using a variety of crops and weeds. The test plants included soybean (Glycine max var. Williams), field corn (Zea mays var. Agway 425X), wheat (Triticum aestivum var. Wheaton), morningglory (Ipomea lacunosa or Ipomea hederacea), velvetleaf (Abutilon theophrasti), green foxtail (Setaria viridis), Johnsongrass (Sorghum halepense), blackgrass (Aloepecurus myosuroides), common chickweed (Stellaria media), and common cocklebur (Xanthium pensylvanicum).
(§2) For preemergence testing, two disposable fiber flats (8 cm×15 cm×25 cm) for each rate of application of each candidate herbicide were filled to an approximate depth of 6.5 cm with steam-sterilized sandy loam soil. The soil was leveled and impressed with a template to provide five evenly spaced furrows 13 cm long and 0.5 cm deep in each flat. Seeds of soybean, wheat, corn, green foxtail, and johnsongrass were planted in the furrows of the first flat, and seeds of velvetleaf, morningglory, common chickweed, cocklebur, and blackgrass were planted in the furrows of the second flat. The five-row template was employed to firmly press the seeds into place. A topping soil of equal portions of sand and sandy loam soil was placed uniformly on top of each flat to a depth of approximately 0.5 cm. Flats for postemergence testing were prepared in the same manner except that they were planted 8-12 days prior to the preemergence flats and were placed in a greenhouse and watered, thus allowing the seeds to germinate and the foliage to develop.
(§3) In both pre- and postemergence tests, a stock solution of the candidate herbicide was prepared by dissolving 0.27 g of the compound in 20 mL of water/acetone (50/50) containing 0.5% v/v sorbitan monolaurate. For an application rate of 3000 g/ha of herbicide a 10 mL portion of the stock solution was diluted with water/acetone (50/50) to 45 mL.
(§4) The preemergence flats were initially subjected to a light water spray. The four flats were placed two by two along a conveyor belt (i.e., the two preemergence followed by the two postemergence flats). The conveyor belt fed under a spray nozzle mounted about ten inches above the postemergent foliage. The preemergent flats were elevated on the belt so that the soil surface was at the same level below the spray nozzle as the foliage canopy of the postemergent plants. The spray of herbicidal solution was commenced and once stabilized, the flats were passed under the spray at a speed to receive a coverage equivalent of 1000 L/ha. At this coverage the application rates are those shown in the above table for the individual herbicidal solutions. The preemergence flats were watered immediately thereafter, placed in the greenhouse and watered regularly at the soil surface. The postemergence flats were immediately placed in the greenhouse and not watered until 24 hours after treatment with the test solution. Thereafter they were regularly watered at ground level. After 17-21 days the plants were examined and the phytotoxicity data were recorded.
(§5) Herbicidal activity data at selected application rates are given for various compounds of this invention in Table 2 and Table 3. The test compounds are identified by numbers which correspond to those in Table 1.
(§6) Phytotoxicity data were taken as percent control. Percent control was determined by a method similar to the 0 to 100 rating system disclosed in "Research Methods in Weed Science," 2nd ed., B. Truelove, Ed.; Southern Weed Science Society; Auburn University, Auburn, Ala., 1977.

Wheat [2] = experiment: Preemergence herbicidal activity, wheat; assay type: in vivo, Triticum aestivum var. Wheaton; details: Triticum aestivum, pre-emergence, 0.3 kg/ha, after 17-21 days, read-out: Preemergence herbicidal activity (% control), Wheat
Method: as §1, §2, §3, §4, §5, §6

Corn [3] = experiment: Preemergence herbicidal activity, corn; assay type: in vivo, Zea mays var. Agway 425X; details: Zea mays, pre-emergence, 0.3 kg/ha, after 17-21 days, read-out: Preemergence herbicidal activity (% control), Corn
Method: as §1, §2, §3, §4, §5, §6

Velvetleaf [4] = experiment: Preemergence herbicidal activity, velvetleaf; assay type: in vivo; details: Abutilon theophrasti, pre-emergence, 0.3 kg/ha, after 17-21 days, read-out: Preemergence herbicidal activity (% control), Velvetleaf
Method: as §1, §2, §3, §4, §5, §6

Morningglory [5] = experiment: Preemergence herbicidal activity, morningglory; assay type: in vivo, Ipomea lacunosa or Ipomea hederacea; details: Ipomoea, pre-emergence, 0.3 kg/ha, after 17-21 days, read-out: Preemergence herbicidal activity (% control), Morningglory
Method: as §1, §2, §3, §4, §5, §6

Chickweed [6] = experiment: Preemergence herbicidal activity, chickweed; assay type: in vivo; details: Stellaria media, pre-emergence, 0.3 kg/ha, after 17-21 days, read-out: Preemergence herbicidal activity (% control), Chickweed
Method: as §1, §2, §3, §4, §5, §6

Cocklebur [7] = experiment: Preemergence herbicidal activity, cocklebur; assay type: in vivo, Xanthium pensylvanicum; details: Xanthium strumarium, pre-emergence, 0.3 kg/ha, after 17-21 days, read-out: Preemergence herbicidal activity (% control), Cocklebur
Method: as §1, §2, §3, §4, §5, §6

Blackgrass [8] = experiment: Preemergence herbicidal activity, blackgrass; assay type: in vivo, Aloepecurus myosuroides; details: Alopecurus myosuroides, pre-emergence, 0.3 kg/ha, after 17-21 days, read-out: Preemergence herbicidal activity (% control), Blackgrass
Method: as §1, §2, §3, §4, §5, §6

Green foxtail [9] = experiment: Preemergence herbicidal activity, green foxtail; assay type: in vivo; details: Setaria viridis, pre-emergence, 0.3 kg/ha, after 17-21 days, read-out: Preemergence herbicidal activity (% control), Green foxtail
Method: as §1, §2, §3, §4, §5, §6

Johnsongrass [10] = experiment: Preemergence herbicidal activity, johnsongrass; assay type: in vivo; details: Sorghum halepense, pre-emergence, 0.3 kg/ha, after 17-21 days, read-out: Preemergence herbicidal activity (% control), Johnsongrass
Method: as §1, §2, §3, §4, §5, §6

Soybean [11] = experiment: Postemergence herbicidal activity, soybean; assay type: in vivo, Glycine max var. Williams; details: Glycine max, post-emergence, 0.3 kg/ha, after 17-21 days, read-out: Postemergence herbicidal activity (% control), Soybean
Method: as §1, §2, §3, §4, §5, §6

Wheat [12] = experiment: Postemergence herbicidal activity, wheat; assay type: in vivo, Triticum aestivum var. Wheaton; details: Triticum aestivum, post-emergence, 0.3 kg/ha, after 17-21 days, read-out: Postemergence herbicidal activity (% control), Wheat
Method: as §1, §2, §3, §4, §5, §6

Corn [13] = experiment: Postemergence herbicidal activity, corn; assay type: in vivo, Zea mays var. Agway 425X; details: Zea mays, post-emergence, 0.3 kg/ha, after 17-21 days, read-out: Postemergence herbicidal activity (% control), Corn
Method: as §1, §2, §3, §4, §5, §6

Velvetleaf [14] = experiment: Postemergence herbicidal activity, velvetleaf; assay type: in vivo; details: Abutilon theophrasti, post-emergence, 0.3 kg/ha, after 17-21 days, read-out: Postemergence herbicidal activity (% control), Velvetleaf
Method: as §1, §2, §3, §4, §5, §6

Morningglory [15] = experiment: Postemergence herbicidal activity, morningglory; assay type: in vivo, Ipomea lacunosa or Ipomea hederacea; details: Ipomoea, post-emergence, 0.3 kg/ha, after 17-21 days, read-out: Postemergence herbicidal activity (% control), Morningglory
Method: as §1, §2, §3, §4, §5, §6

Chickweed [16] = experiment: Postemergence herbicidal activity, chickweed; assay type: in vivo; details: Stellaria media, post-emergence, 0.3 kg/ha, after 17-21 days, read-out: Postemergence herbicidal activity (% control), Chickweed
Method: as §1, §2, §3, §4, §5, §6

Cocklebur [17] = experiment: Postemergence herbicidal activity, cocklebur; assay type: in vivo, Xanthium pensylvanicum; details: Xanthium strumarium, post-emergence, 0.3 kg/ha, after 17-21 days, read-out: Postemergence herbicidal activity (% control), Cocklebur
Method: as §1, §2, §3, §4, §5, §6

Blackgrass [18] = experiment: Postemergence herbicidal activity, blackgrass; assay type: in vivo, Aloepecurus myosuroides; details: Alopecurus myosuroides, post-emergence, 0.3 kg/ha, after 17-21 days, read-out: Postemergence herbicidal activity (% control), Blackgrass
Method: as §1, §2, §3, §4, §5, §6

Green foxtail [19] = experiment: Postemergence herbicidal activity, green foxtail; assay type: in vivo; details: Setaria viridis, post-emergence, 0.3 kg/ha, after 17-21 days, read-out: Postemergence herbicidal activity (% control), Green foxtail
Method: as §1, §2, §3, §4, §5, §6

Johnsongrass [20] = experiment: Postemergence herbicidal activity, johnsongrass; assay type: in vivo; details: Sorghum halepense, post-emergence, 0.3 kg/ha, after 17-21 days, read-out: Postemergence herbicidal activity (% control), Johnsongrass
Method: as §1, §2, §3, §4, §5, §6

Structure (SMILES)	activity at 300 g/ha (Soybean [1])	activity at 300 g/ha (Wheat [2])	activity at 300 g/ha (Corn [3])	activity at 300 g/ha (Velvetleaf [4])	activity at 300 g/ha (Morningglory [5])	activity at 300 g/ha (Chickweed [6])	activity at 300 g/ha (Cocklebur [7])	activity at 300 g/ha (Blackgrass [8])	activity at 300 g/ha (Green foxtail [9])	activity at 300 g/ha (Johnsongrass [10])	activity at 300 g/ha (Soybean [11])	activity at 300 g/ha (Wheat [12])	activity at 300 g/ha (Corn [13])	activity at 300 g/ha (Velvetleaf [14])	activity at 300 g/ha (Morningglory [15])	activity at 300 g/ha (Chickweed [16])	activity at 300 g/ha (Cocklebur [17])	activity at 300 g/ha (Blackgrass [18])	activity at 300 g/ha (Green foxtail [19])	activity at 300 g/ha (Johnsongrass [20])
Cn1c(C(F)(F)F)cc(=O)n(-c2ccc(OCc3ccccc3)cc2)c1=O [Compound 1]	75%	10%	60%	100%	100%	90%	75%	10%	100%	75%	80%	0%	30%	100%	95%	95%	80%	10%	90%	60%
Cn1c(C(F)(F)F)cc(=O)n(-c2ccc(OCc3ccccc3Cl)cc2)c1=O [Compound 2]	20%	5%	15%	100%	60%	0%	10%	0%	100%	70%	60%	0%	45%	80%	60%	0%	30%	0%	85%	10%
Cn1c(C(F)(F)F)cc(=O)n(-c2ccc(OCc3cccc(Cl)c3)cc2)c1=O [Compound 3]	10%	0%	10%	80%	10%	0%	0%	0%	95%	20%	45%	10%	60%	100%	90%	70%	100%	0%	95%	90%
Cn1c(C(F)(F)F)cc(=O)n(-c2ccc(OCc3ccc(Cl)cc3)cc2)c1=O [Compound 4, 3-[4-(4-Chlorophenylmethoxy)phenyl]-1-methyl-6-trifluoromethyluracil]	60%	10%	30%	100%	90%	100%	30%	50%	100%	95%	95%	0%	50%	95%	100%	100%	100%	0%	80%	0%
Cn1c(C(F)(F)F)cc(=O)n(-c2ccc(OCc3cccc(Cl)c3Cl)cc2)c1=O [Compound 42]	0%	0%	0%	80%	70%	0%	0%	0%	60%	30%	25%	0%	30%	90%		0%	35%	0%	50%	50%
